Data set [1] has as its system PC12 cells. The experiment in a line: Neuroprotective effect against H2O2-induced cytotoxicity, MTT cell viability. It is filed as cell-based. The conditions noted are these: Rattus norvegicus, PC-12, 10 μM pretreatment 4 h, then H2O2 (1 μM) 2 h, read-out: Cell viability (survival rate compared to control). Here is the method:
(§1) The in vitro neurotoxicity model was established using H2O2 to induce oxidative stress and injury in PC12 cells.
Briefly, PC12 cells were seeded in 96-well plates at the density of 6 × 10^4 cell/well and incubated at 37 °C for 24 h. […] After the treatment, the cells were observed under inverted phase contrast microscopy and cell images were recorded. Subsequently, the cells viability was assessed by MTT assay using a microplate reader.

The nature of data set [2]: In vitro chemical stability in phosphate buffers. As to conditions: 37 °C. Type of data set: physicochemical. Here is the method: The in vitro chemical stability of prodrugs was investigated by incubating the prodrugs in pH 2.5, 5.0, 7.4 and 8.0 phosphate buffers, respectively. Briefly, 1 ml of the prodrugs methanol solution (250 μg/ml) was added into 4 ml different buffer separately. The entire system was kept at 37 ± 0.5 °C with continuous shaking at 100 rpm/min. 200 μl medium samples were taken at the following time points: 0, 0.5, 1, 2, 3, 6, 12, and 24 h, and then replaced by fresh medium. The samples were analyzed by HPLC (Shimadzu). The analysis was accomplished on a SinoChrom ODS-C18 column (Dalian, China) (200 × 4.6 mm, […]), thermostated at 35 °C. The mobile phase was composed of methanol/water (73:27), and the pH was adjusted to 2.86 with 10% phosphoric acid. The UV […] was 225 nm and the flow rate was set at 1.0 ml/min with a 20 μl injection volume.
These solutions were maintained at 37 °C, and the aliquots were withdrawn in predetermined time intervals, then the concentrations of the prodrugs were determined by HPLC method.

In data set [3] the test system is cerebral ischemia model induced by bilateral common carotid artery occlusion. In words: Brain ischemia model, TTC staining of brain sections. The conditions noted are these: rats, 1 mg/kg (calculated as ibuprofen) tail vein, 30 min before 1.5 h ligation. It is filed as in vivo, Wistar rats.
Data set [4] can be described thus: Metabolic stability in mice plasma. Type of data set: in vitro ADME. The conditions noted are these: 37 °C. The procedure: (§2) The preliminary metabolic stability of prodrugs was studied by incubating in plasma and brain homogenate, respectively. 1 ml of the prodrugs methanol solution (250 μM) was added into 4 ml plasma or brain homogenate. Then, the entire system was kept at 37 ± 0.5 °C with continuous shaking at 100 rpm/min. 200 μl samples were taken at the following time points: 0, 0.5, 1, 2, 3, 6, 12, and 24 h, and then replaced by plasma or brain homogenate. The internal standard (naproxen, 10 μl, 30 μg/ml) was added to each sample followed by 200 μl acetonitrile.
(§3) The metabolic stability of the prodrugs was studied in the mice plasma and brain homogenate at 37 °C. The Kdisapp and t1/2 of the prodrugs in plasma and brain homogenate were calculated by linear regression of the peak area against time (Table 2).

Data set [5] in a line: Distribution in brain in mice, brain homogenate. It is filed as in vivo, Kunming mice. As to conditions: for AUC(0–t): brain homogenate, ibuprofen after hydrolysis of sample, 10 mg/kg (calculated as ibuprofen) tail vein.
Description: Kunming mice weighing 20–22 g were purchased from DOSSY Experimental Animal Center of Chengdu (Sichuan, China). All animal procedures for this study were approved by the Experiment Animal Administrative Committee of Sichuan University (P.R. China).
At appropriate time interval (5, 10, 15, 30, 45, 60, 90, 120, 240 and 480 min), blood was collected from the eye socket of mouse into a tube containing heparin, and centrifuged at 5000 rpm for 5 min. The supernatant was collected as plasma sample. The animals were killed by cervical dislocation, and the brain tissue was removed, and then washed with saline for three times to remove the remained blood and rolled over on the filter paper to remove the main vessel. All the brain tissues were homogenized with twice amount of saline. An aliquot of 10 μl of internal standard (naproxen, 30 μg/ml) was added into 200 μl plasma or 200 μl brain homogenate, the mixture was vortexed with 200 μl methanol for 5 min. Then, an aliquot of 50 μl of 6 M NaOH aqueous solution was added to the spiking mixture. […] Followed by vortexing for 5 min, 0.6 ml acetonitrile was added and the mixture was centrifuged at 15,000 rpm for 10 min. The separated supernatant was evaporated to dryness at 40 °C under air flow. The residues were redissolved in 50 μl methanol and centrifuged at 15,000 rpm for 10 min, and then 20 μl of the supernatant was injected into the HPLC system for analysis.
The area under the curve (AUC0–t) and the maximal concentration (Cmax) were calculated by Data and Statistics (DAS, Shanghai, China). The statistical analysis of the samples was performed by using a Student’s t-test with p values < .05 as the minimal level of significance. The relative uptake efficiency (RE) and concentration efficiency (CE) were calculated to evaluate the brain-targeting property of prodrugs. The values of REbrain and CEbrain are defined as follows: RE = (AUC 0) Pro/(AUC 0) Ibu, CE=(Cmax)Pro/(Cmax)Ibu.
Data set [6] deals with cerebral ischemia model induced by bilateral common carotid artery occlusion. The experiment in a line: Brain ischemia model, SOD, MDA and GSH in brain homogenate. The conditions noted are these: rat brain homogenate, 1 mg/kg (calculated as ibuprofen) tail vein; for MDA level: relative to sham group. It is filed as in vivo, Wistar rats.
The subject of data set [7] is PC12 cells. In words: SOD activity after H2O2 in vitro (colorimetry kit). It is filed as cell-based. As to conditions: 10 μM pretreatment 4 h, then H2O2 (1 μM) 2 h. Here is the method: as §1
The ROS assay kit (S0033; Beyotime Institute of Biotechnology, Jiangsu, China) in DCFH-DA method was used to determine the intracellular ROS generation. PC12 cells were seeded in six-well plates at a density of 5 × 10^5 cells/well and incubated at 37 °C for 24 h. […] Then trypsin–EDTA was used to harvest the cells, which were washed three times with PBS afterward, and finally stained with 2′,7′-dichlorofluorescein diacetate (DCFH-DA, 10 μM) and incubated for 20 min at 37 °C in the dark. After centrifugation (2000 rpm, 3 min), the cell pellet was washed three times with PBS, resuspended in PBS before flow cytometer analysis (Ex 488 nm and Em 525 nm). SOD is an index of superoxide level which neutralizes free oxygen radicals, usually being tested along with ROS level showing oxidative stress. In brief, after harvesting, the cells were resuspended in PBS and lysed by Ultrasonic cell grinder (SCIENTZ-II D, Zhejiang, China) to obtain the cell lysis solution. Then, the SOD activity was evaluated using colorimetry kits (A001; Nanjing Jiancheng Bioengineering Institute, Nanjing, China). Untreated cells were used as the control.

Data set [8] in a line: Metabolic stability in mice brain homogenate. It is filed as in vitro ADME. The conditions noted are these: 37 °C. The procedure: as §2, §3
Where [9] appears, read: Kunming, mouse, iv, brain, analyte intact prodrug, before hydrolysis, 10 mg/kg tail vein.
The mark [10] stands for this setting: brain, analyte ibuprofen (dosed or released), before hydrolysis, 10 mg/kg tail vein.

SMILES strings stand for the structures.

For `CC(C)Cc1ccc(C(C)C(=O)OC(COC(=O)CCC(=O)OCC2OC(O)C(O)C(O)C2O)C2OC(=O)C(O)=C2O)cc1` (centres unmarked) [Glu-Vc-Ibu], the viability at 10 µM in the data set with PC12 cells [1] was determined as 89.9%. For the same compound, the Kdisapp came out at 1.07e-05 s⁻¹ in data set [2] (pH 2.5 phosphate buffer); 3.86e-06 s⁻¹ in data set [2] (pH 5.0 phosphate buffer); 1.5e-05 s⁻¹ in data set [2] (pH 7.4 phosphate buffer); 1.74e-05 s⁻¹ in data set [2] (pH 8.0 phosphate buffer); 0.000187 s⁻¹ in data set [4]; 0.000542 s⁻¹ in data set [8]. Besides, the half-life at 50 μg/ml in data set [2] (pH 2.5 phosphate buffer) is 18.1 h; in data set [2] (pH 5.0 phosphate buffer) it was 49.9 h; in data set [2] (pH 7.4 phosphate buffer) it was 12.8 h; in data set [2] (pH 8.0 phosphate buffer) it was 11.1 h. Besides, the “TTC red-staining rate compared with the sham group” value in data set [3] is given as 87.95%. For the same compound, the half-life at 50 μM in data set [4] (mouse) was found to be 1.03 h; in data set [8] (mouse), 0.355 h. For the same compound, the Cmax in data set [5] (setting [9]) was found to be 26400 ± 1970 ng/g. Further, in data set [5] (setting [9]), the MRT is 2.73 h. For the same compound, the Tmax in data set [5] (setting [9]) is 0.25 h. Moreover, the “AUC(0–t)” value in data set [5] was 7308.11 ± 447.86 µg·min/g. Also, the “AUC(0-t)” value in data set [5] (setting [10]) came out at 3393.98 ± 257.39 µg·min/g; in data set [5] (brain, analyte intact prodrug, before hydrolysis, 10 mg/kg tail vein), 3459.18 ± 223.76 µg·min/g. Also, the SOD activity entry is listed as “significant raise compared with saline group or ibuprofen group” in data set [6] and “markedly relieved the damage compared with others” in the data set on PC12 cells [7]. For the same compound, the MDA level in data set [6] is on record as 110.96%.
For `CC(C)Cc1ccc(C(C)C(=O)O)cc1` (centres unmarked) [Ibuprofen, reference compound], in the data set with PC12 cells [1], the viability at 10 µM worked out at 74.1%. In addition, in data set [3], the “TTC red-staining rate compared with the sham group” value is given as 48.09%. The “AUC(0–t)” value in data set [5] is 2782.42 ± 176.55 µg·min/g. The “AUC(0-t)” value in data set [5] (setting [10]) was determined as 2782.42 ± 176.55 µg·min/g. For the same compound, in data set [6], the SOD activity entry is reported as “did not obviously reverse the decrease of SOD activity” and the MDA level is given as 192.42%.

(Values after PMC6058731, “Dual-targeting for brain-specific drug delivery: synthesis and biological evaluation” (Drug Delivery, 2018).)
